# According to article PMC7031773, “Molecular Mechanisms Responsible for Pharmacological Effects of Genipin on Mitochondrial Proteins” (Biophysical Journal, 2019):
# Legend:
# Format in all cases: biochemical
# [1] = molecular target: T1, mitochondrial uncoupling protein 1 (UCP1) (Mus musculus, UniProt P12242); experiment: planar lipid bilayer conductance, competition of […] ATP with […] genipin
# T1 construct: recombinant mouse UCP1 from E. coli inclusion bodies, reconstituted in lipid bilayers
# T1 sequence (P12242 1-307): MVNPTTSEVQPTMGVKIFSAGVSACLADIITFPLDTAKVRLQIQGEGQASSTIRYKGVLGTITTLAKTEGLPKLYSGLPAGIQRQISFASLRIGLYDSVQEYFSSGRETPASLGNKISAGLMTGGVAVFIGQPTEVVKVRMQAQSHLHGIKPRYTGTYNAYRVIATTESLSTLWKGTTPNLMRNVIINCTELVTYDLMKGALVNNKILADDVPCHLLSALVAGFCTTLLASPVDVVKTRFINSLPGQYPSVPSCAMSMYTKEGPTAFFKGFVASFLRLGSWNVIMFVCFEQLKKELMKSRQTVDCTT
# Description: The first bar is the inhibition after the addition of ATP
# [2] = molecular target: T2, mitochondrial complex III (CIII) (Bos taurus, UniProt P00157); experiment: cytochrome c reduction by isolated complex III, […] genipin
# T2 construct: gene MT-CYB; complex III isolated from bovine heart
# [3] = molecular target: T3, mitochondrial uncoupling protein 2 (UCP2) (Mus musculus, UniProt P70406); experiment: planar lipid bilayer conductance with reconstituted UCP2
# T3 construct: recombinant mouse UCP2 from E. coli inclusion bodies, reconstituted in lipid bilayers
# T3 sequence (P70406 1-309): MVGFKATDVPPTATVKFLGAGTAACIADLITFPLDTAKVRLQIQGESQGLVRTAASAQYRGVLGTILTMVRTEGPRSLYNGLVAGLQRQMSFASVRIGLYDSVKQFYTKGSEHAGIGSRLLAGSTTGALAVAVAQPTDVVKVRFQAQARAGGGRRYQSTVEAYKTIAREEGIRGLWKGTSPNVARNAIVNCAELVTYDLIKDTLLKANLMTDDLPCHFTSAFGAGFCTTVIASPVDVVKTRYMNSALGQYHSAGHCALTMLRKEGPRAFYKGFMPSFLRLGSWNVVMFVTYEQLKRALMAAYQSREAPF
# [4] = molecular target: T1, mitochondrial uncoupling protein 1 (UCP1); experiment: planar lipid bilayer conductance with reconstituted UCP1; LC-MS/MS of covalent adducts; arginine mutants; competition with ATP
# [5] = molecular target: T4, mitochondrial uncoupling protein 3 (UCP3) (Mus musculus, UniProt P56501); experiment: planar lipid bilayer conductance with reconstituted UCP3
# T4 construct: recombinant mouse UCP3 from E. coli inclusion bodies, reconstituted in lipid bilayers
# T4 sequence (P56501 1-308): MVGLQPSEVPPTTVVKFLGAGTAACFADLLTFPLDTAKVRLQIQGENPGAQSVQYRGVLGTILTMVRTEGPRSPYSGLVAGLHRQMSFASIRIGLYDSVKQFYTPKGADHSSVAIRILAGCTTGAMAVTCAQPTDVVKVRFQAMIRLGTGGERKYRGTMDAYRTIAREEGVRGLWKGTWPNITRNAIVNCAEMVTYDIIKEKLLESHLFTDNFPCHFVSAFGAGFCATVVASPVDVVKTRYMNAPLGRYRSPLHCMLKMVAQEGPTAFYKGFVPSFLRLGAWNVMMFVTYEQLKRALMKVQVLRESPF
# [6] = molecular target: T1, mitochondrial uncoupling protein 1 (UCP1); experiment: planar lipid bilayer conductance with reconstituted UCP1
smiles,measurement,setting,value
Nc1ncnc2c1ncn2[C@@H]1O[C@H](COP(=O)(O)OP(=O)(O)OP(=O)(O)O)[C@@H](O)[C@H]1O [ATP],"planar lipid bilayer conductance, competition of 3 mM ATP with 50 μM genipin",[1],Competitive inhibition of UCP1 with genipin (GNP) and ATP. The first bar is the inhibition after the addition of ATP
"COC(=O)C1=CO[C@@H](O)[C@@H]2C(CO)=CC[C@H]12 [GNP, genipin]",activity at 50 µM,[2],63 ± 7%
same,IC50,[3],94 ± 24 µM
same,IC50,[4],133 ± 12 µM
same,IC50,[5],41 ± 12 µM
COC(=O)C1=CO[C@@H](O[C@@H]2O[C@H](CO)[C@@H](O)[C@H](O)[C@H]2O)[C@@H]2C(CO)=CC[C@H]12 [geniposide],EC50,[6],693 ± 90 µM
